Test results reported in ChEMBL document CHEMBL1156230, “Identification of phenylsulfone-substituted quinoxaline (WYE-672) as a tissue selective liver X-receptor (LXR) agonist” (J Med Chem, 2010).
The source made the active and inactive calls. No cut-off for these calls is given here.

What was measured:
[1] = tested on: Mus musculus; test: Antiatherosclerotic activity against high fat/high cholesterol fed LDLR-deficient mouse assessed as cyp7a1 gene regulation at 0.6 mg/kg administered with diet for 7 days by Experion chip analysis; format: functional, organism-based; design: dose 0.6 mg/kg
[2] = tested on: Mus musculus; test: Antiatherosclerotic activity against high fat/high cholesterol fed LDLR-deficient mouse assessed as Irp1 gene regulation at 0.6 mg/kg administered with diet for 7 days by Experion chip analysis; format: functional, organism-based; design: dose 0.6 mg/kg
[3] = tested on: Mus musculus; test: Antiatherosclerotic activity against high fat/high cholesterol fed LDLR-deficient mouse assessed as cyp7a1 gene regulation at 10 mg/kg administered with diet for 7 days by Experion chip analysis; format: functional, organism-based; design: dose 10 mg/kg
[4] = tested on: Mus musculus; test: Antiatherosclerotic activity against high fat/high cholesterol fed LDLR-deficient mouse assessed as lipg gene regulation at 10 mg/kg administered with diet for 7 days by Experion chip analysis; format: functional, organism-based; design: dose 10 mg/kg
[5] = tested on: Mus musculus; test: Antiatherosclerotic activity against high fat/high cholesterol fed LDLR-deficient mouse assessed as Irp1 gene regulation at 3 mg/kg administered with diet for 7 days by Experion chip analysis; format: functional, organism-based; design: dose 3 mg/kg
[6] = tested on: Mus musculus; test: Antiatherosclerotic activity against high fat/high cholesterol fed LDLR-deficient mouse duodenum assessed as induction of SREBP-1c expression at 3 mg/kg administered with diet for 8 weeks; format: functional, organism-based; design: dose 3 mg/kg
[7] = tested on: Mus musculus; test: Antiatherosclerotic activity against high fat/high cholesterol fed LDLR-deficient mouse assessed as abcg5 gene regulation at 0.6 mg/kg administered with diet for 7 days by Experion chip analysis; format: functional, organism-based; design: dose 0.6 mg/kg
[8] = tested on: Mus musculus; test: Antiatherosclerotic activity against high fat/high cholesterol fed LDLR-deficient mouse assessed as Fasn gene regulation at 10 mg/kg administered with diet for 7 days by Experion chip analysis; format: functional, organism-based; design: dose 10 mg/kg
[9] = tested on: Mus musculus; test: Antiatherosclerotic activity against high fat/high cholesterol fed LDLR-deficient mouse duodenum assessed as induction of ABCG8 expression at 3 mg/kg administered with diet for 8 weeks; format: functional, organism-based; design: dose 3 mg/kg
[10] = tested on: Mus musculus; test: Antiatherosclerotic activity against high fat/high cholesterol fed LDLR-deficient mouse duodenum assessed as induction of ABCG8 expression at 0.6 mg/kg administered with diet for 8 weeks; format: functional, organism-based; design: dose 0.6 mg/kg
[11] = tested on: Mus musculus; test: Antiatherosclerotic activity against high fat/high cholesterol fed LDLR-deficient mouse duodenum assessed as induction of ABCG5 expression at 10 mg/kg administered with diet for 8 weeks; format: functional, organism-based; design: dose 10 mg/kg
[12] = tested on: Mus musculus; test: Antiatherosclerotic activity against high fat/high cholesterol fed LDLR-deficient mouse assessed as abcg8 gene regulation at 0.6 mg/kg administered with diet for 7 days by Experion chip analysis; format: functional, organism-based; design: dose 0.6 mg/kg
[13] = tested on: Mus musculus; test: Antiatherosclerotic activity against high fat/high cholesterol fed LDLR-deficient mouse assessed as pcsk9 gene regulation at 3 mg/kg administered with diet for 7 days by Experion chip analysis; format: functional, organism-based; design: dose 3 mg/kg
[14] = tested on: Mus musculus; test: Antiatherosclerotic activity against high fat/high cholesterol fed LDLR-deficient mouse assessed as abca1 gene regulation at 10 mg/kg administered with diet for 7 days by Experion chip analysis; format: functional, organism-based; design: dose 10 mg/kg
[15] = tested on: Mus musculus; test: Antiatherosclerotic activity against high fat/high cholesterol fed LDLR-deficient mouse assessed as Fasn gene regulation at 0.6 mg/kg administered with diet for 7 days by Experion chip analysis; format: functional, organism-based; design: dose 0.6 mg/kg
[16] = tested on: Mus musculus; test: Antiatherosclerotic activity against high fat/high cholesterol fed LDLR-deficient mouse assessed as adfp gene regulation at 3 mg/kg administered with diet for 7 days by Experion chip analysis; format: functional, organism-based; design: dose 3 mg/kg
[17] = tested on: Mus musculus; test: Antiatherosclerotic activity against high fat/high cholesterol fed LDLR-deficient mouse macrophages assessed as induction of ABCA1 expression at 0.6 mg/kg administered with diet for 8 weeks; format: functional, organism-based; design: dose 0.6 mg/kg
[18] = tested on: Mus musculus; test: Antiatherosclerotic activity against high fat/high cholesterol fed LDLR-deficient mouse assessed as scd1 gene regulation at 10 mg/kg administered with diet for 7 days by Experion chip analysis; format: functional, organism-based; design: dose 10 mg/kg
[19] = tested on: Mus musculus; test: Antiatherosclerotic activity against high fat/high cholesterol fed LDLR-deficient mouse assessed as apoc1 gene regulation at 0.6 mg/kg administered with diet for 7 days by Experion chip analysis; format: functional, organism-based; design: dose 0.6 mg/kg
[20] = tested on: Mus musculus; test: Antiatherosclerotic activity against high fat/high cholesterol fed LDLR-deficient mouse macrophages assessed as induction of ABCG1 expression at 0.6 mg/kg administered with diet for 8 weeks; format: functional, organism-based; design: dose 0.6 mg/kg
[21] = tested on: Mus musculus; test: Antiatherosclerotic activity against high fat/high cholesterol fed LDLR-deficient mouse assessed as abcg8 gene regulation at 3 mg/kg administered with diet for 8 weeks by Experion chip analysis
[22] = species: Mus musculus; test: Antiatherosclerotic activity against high fat/high cholesterol fed LDLR-deficient mouse assessed as reduction in total plasma cholesterol; format: functional, organism-based
[23] = tested on: Mus musculus; test: Antiatherosclerotic activity against high fat/high cholesterol fed LDLR-deficient mouse assessed as cyp7a1 gene regulation at 3 mg/kg administered with diet for 7 days by Experion chip analysis; format: functional, organism-based; design: dose 3 mg/kg
[24] = tested on: Mus musculus; test: Antiatherosclerotic activity against high fat/high cholesterol fed LDLR-deficient mouse assessed as adfp gene regulation at 0.6 mg/kg administered with diet for 7 days by Experion chip analysis; format: functional, organism-based; design: dose 0.6 mg/kg
[25] = tested on: Mus musculus; test: Antiatherosclerotic activity against high fat/high cholesterol fed LDLR-deficient mouse macrophages assessed as induction of ABCA1 expression at 10 mg/kg administered with diet for 8 weeks; format: functional, organism-based; design: dose 10 mg/kg
[26] = tested on: Mus musculus; test: Antiatherosclerotic activity against high fat/high cholesterol fed LDLR-deficient mouse assessed as scd1 gene regulation at 0.6 mg/kg administered with diet for 7 days by Experion chip analysis; format: functional, organism-based; design: dose 0.6 mg/kg
[27] = tested on: Mus musculus; test: Antiatherosclerotic activity against high fat/high cholesterol fed LDLR-deficient mouse assessed as lipg gene regulation at 3 mg/kg administered with diet for 7 days by Experion chip analysis; format: functional, organism-based; design: dose 3 mg/kg
[28] = tested on: Mus musculus; test: Antiatherosclerotic activity against high fat/high cholesterol fed LDLR-deficient mouse duodenum assessed as induction of ABCA1 expression at 3 mg/kg administered with diet for 8 weeks; format: functional, organism-based; design: dose 3 mg/kg
[29] = tested on: Mus musculus; test: Antiatherosclerotic activity against high fat/high cholesterol fed LDLR-deficient mouse duodenum assessed as induction of SREBP-1c expression at 10 mg/kg administered with diet for 8 weeks; format: functional, organism-based; design: dose 10 mg/kg
[30] = tested on: Mus musculus; test: Antiatherosclerotic activity against high fat/high cholesterol fed LDLR-deficient mouse assessed as abca1 gene regulation at 3 mg/kg administered with diet for 7 days by Experion chip analysis; format: functional, organism-based; design: dose 3 mg/kg
[31] = tested on: Mus musculus; test: Antiatherosclerotic activity against high fat/high cholesterol fed LDLR-deficient mouse assessed as IPl gene regulation at 10 mg/kg administered with diet for 7 days by Experion chip analysis; format: functional, organism-based; design: dose 10 mg/kg
[32] = tested on: Mus musculus; test: Antiatherosclerotic activity against high fat/high cholesterol fed LDLR-deficient mouse assessed as Irp1 gene regulation at 10 mg/kg administered with diet for 7 days by Experion chip analysis; format: functional, organism-based; design: dose 10 mg/kg
[33] = tested on: Mus musculus; test: Antiatherosclerotic activity against high fat/high cholesterol fed LDLR-deficient mouse assessed as apoe gene regulation at 3 mg/kg administered with diet for 7 days by Experion chip analysis; format: functional, organism-based; design: dose 3 mg/kg
[34] = tested on: Mus musculus; test: Antiatherosclerotic activity against high fat/high cholesterol fed LDLR-deficient mouse assessed as lipg gene regulation at 0.6 mg/kg administered with diet for 7 days by Experion chip analysis; format: functional, organism-based; design: dose 0.6 mg/kg
[35] = tested on: Mus musculus; test: Antiatherosclerotic activity against high fat/high cholesterol fed LDLR-deficient mouse assessed as apoc1 gene regulation at 10 mg/kg administered with diet for 7 days by Experion chip analysis; format: functional, organism-based; design: dose 10 mg/kg
[36] = tested on: Mus musculus; test: Antiatherosclerotic activity against high fat/high cholesterol fed LDLR-deficient mouse duodenum assessed as induction of ABCA1 expression at 0.6 mg/kg administered with diet for 8 weeks; format: functional, organism-based; design: dose 0.6 mg/kg
[37] = tested on: Mus musculus; test: Antiatherosclerotic activity against high fat/high cholesterol fed LDLR-deficient mouse duodenum assessed as induction of ABCG5 expression at 3 mg/kg administered with diet for 8 weeks; format: functional, organism-based; design: dose 3 mg/kg
[38] = tested on: Mus musculus; test: Antiatherosclerotic activity against high fat/high cholesterol fed LDLR-deficient mouse assessed as apo5 gene regulation at 10 mg/kg administered with diet for 7 days by Experion chip analysis; format: functional, organism-based; design: dose 10 mg/kg

Structure (SMILES)	Activity [1]	Activity [2]	Activity [3]	Activity [4]	Activity [5]	Activity [6]	Activity [7]	Activity [8]	Activity [9]	Activity [10]	Activity [11]	Activity [12]	Activity [13]	Activity [14]	Activity [15]	Activity [16]	Activity [17]	Activity [18]	Activity [19]	Activity [20]	further results
Cc1nc2c(C(F)(F)F)cccc2nc1-c1ccc(-c2cccc(S(C)(=O)=O)c2)cc1	Active	Active	Active	Active	Active	Active	Active	Active	Active	Active	Active	Active	Active	Active	Active	Active	Active	Active	Active	Active	Activity [21]: Active; Activity [22]: inactive; Activity [23]: Active; Activity [24]: Active; Activity [25]: Active; Activity [26]: Active; Activity [27]: Active; Activity [28]: Active; Activity [29]: Active; Activity [30]: Active; Activity [31]: Active; Activity [32]: Active; Activity [33]: Active; Activity [34]: Active; Activity [35]: Active; Activity [36]: Active; Activity [37]: Active; Activity [38]: Active
O=C(O)Cc1cccc(OCCCN(Cc2cccc(C(F)(F)F)c2Cl)CC(c2ccccc2)c2ccccc2)c1	Active	Active	Active	Active	Active	Active	Active	Active	Active	Active	Active	Active	Active	Active	Active	Active	Active	Active	Active	Active	Activity [21]: Active; Activity [22]: inactive; Activity [23]: Active; Activity [24]: Active; Activity [25]: Active; Activity [26]: Active; Activity [27]: Active; Activity [28]: Active; Activity [29]: Active; Activity [30]: Active; Activity [31]: Active; Activity [32]: Active; Activity [33]: Active; Activity [34]: Active; Activity [35]: Active; Activity [36]: Active; Activity [37]: Active; Activity [38]: Active
